Measurements from the supplement of paper PMC11208160.

Assay: recombinant UMI read abundance after kanamycin selection (control-corrected) (log10(CPM+1)); higher = more efficient recombination; extreme values may be limits of the assay; sequences stand for … in AGTGCAGAGAAAATCGGCCAGTTTTCTCTGCCTGCAGTCCGCATGCCGTGGGACCCCTTGGGTTCTAACCTGTTGCCTAGATTTATGCAGCGGACTGCCTTTCTCCCAAAGTGATAAACCGG…AGGTTGGTTTCACT; site = the 11-nt donor
In short: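 In a pooled Escherichia coli screen for the IS621 bridge recombinase, donor and donor-binding-loop pairs were each placed with a 12-nt UMI on a plasmid bearing a promoterless kanamycin gene. This library was co-electroporated with a target plasmid encoding a fixed target and T7-inducible recombinase, and cells were plated either on IPTG (0.07 mM) plus kanamycin or without selection, in two replicates each. Recombinant UMIs were PCR-amplified across the donor–target junction and sequenced, and counts were converted to CPM, averaged over replicates, scaled by control-derived factors and reported as log10(CPM+1).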
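Note: IS621 bridge recombinase in Escherichia coli cells against a fixed T5 target plasmid.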

Sequence | recombinant UMI read abundance (log10)
GCAACTGCATGGACCGGTTTTCCCGGTAATCCGTATTTGCC (site GCGACTGCTGG) | 0
GCAACTGCATGGACCGGTTTTCCCGGTAATCCGTATTTGCC (site GCTACTGCTGG) | 0
GCAATACCATGGACCGGTTTTCCCGGTAATCCGTATTTGTG (site GCAATACCTCA) | 0.00804
GCAATTACATGGACCGGTTTTCCCGGTAATCCGTATTTGTC (site GCAATTACTGA) | 0.939
GCACACCCATGGACCGGTTTTCCCGGTAATCCGTATTTGTT (site GCACACCCTAA) | 0.67
GCACATCCATGGACCGGTTTTCCCGGTAATCCGTATTTGAC (site ACACATCCTGT) | 2.23
GCACATCCATGGACCGGTTTTCCCGGTAATCCGTATTTGAC (site CCACATCCTGT) | 0
GCACATCCATGGACCGGTTTTCCCGGTAATCCGTATTTGAC (site GCACATCCTGT) | 0
GCACATCCATGGACCGGTTTTCCCGGTAATCCGTATTTGAC (site TCACATCCTGT) | 0.745
GCACTTTCATGGACCGGTTTTCCCGGTAATCCGTATTTGGG (site GCACTTTCTCC) | 2.31
GCAGACTCATGGACCGGTTTTCCCGGTAATCCGTATTTGTT (site GCAGACTCTAA) | 3.03
GCAGATCCATGGACCGGTTTTCCCGGTAATCCGTATTTGCT (site GCAGATCCTAG) | 0
GCAGATTCATGGACCGGTTTTCCCGGTAATCCGTATTTGTT (site GAAGATTCTAA) | 0
GCAGATTCATGGACCGGTTTTCCCGGTAATCCGTATTTGTT (site GCAGATTCTAA) | 2.97
GCAGATTCATGGACCGGTTTTCCCGGTAATCCGTATTTGTT (site GGAGATTCTAA) | 0
GCAGATTCATGGACCGGTTTTCCCGGTAATCCGTATTTGTT (site GTAGATTCTAA) | 0.308
GCAGGCCCATGGACCGGTTTTCCCGGTAATCCGTATTTGCT (site GCAGGCCCTAG) | 0.921
GCAGGCGCATGGACCGGTTTTCCCGGTAATCCGTATTTGGT (site GCAGGCGCTAC) | 0.864
GCAGGTGCATGGACCGGTTTTCCCGGTAATCCGTATTTGAT (site ACAGGTGCTAT) | 2.52
GCAGGTGCATGGACCGGTTTTCCCGGTAATCCGTATTTGAT (site CCAGGTGCTAT) | 1.91
GCAGGTGCATGGACCGGTTTTCCCGGTAATCCGTATTTGAT (site GCAGGTGCTAT) | 2.1
GCAGGTGCATGGACCGGTTTTCCCGGTAATCCGTATTTGAT (site TCAGGTGCTAT) | 1.52
GCAGTATCATGGACCGGTTTTCCCGGTAATCCGTATTTGCA (site ACAGTATCTTG) | 2.95

Sequence | recombinant UMI read abundance (log10)
GCAGTATCATGGACCGGTTTTCCCGGTAATCCGTATTTGCA (site CCAGTATCTTG) | 2.09
GCAGTATCATGGACCGGTTTTCCCGGTAATCCGTATTTGCA (site GCAGTATCTTG) | 2.68
GCAGTATCATGGACCGGTTTTCCCGGTAATCCGTATTTGCA (site TCAGTATCTTG) | 1.87
GCAGTATCATGGACCGGTTTTCCCGGTAATCCGTATTTGGA (site ACAGTATCTTG) | 0.785
GCAGTATCATGGACCGGTTTTCCCGGTAATCCGTATTTGGA (site GCAGTATCTTC) | 2.1
GCATCGACATGGACCGGTTTTCCCGGTAATCCGTATTTGCA (site GCATCGACTTG) | 2.56
GCATCTACATGGACCGGTTTTCCCGGTAATCCGTATTTGTG (site ACATCTACTCA) | 0.6
GCATCTACATGGACCGGTTTTCCCGGTAATCCGTATTTGTG (site CCATCTACTCA) | 0.104
GCATCTACATGGACCGGTTTTCCCGGTAATCCGTATTTGTG (site GCATCTACTCA) | 0.968
GCATCTACATGGACCGGTTTTCCCGGTAATCCGTATTTGTG (site TCATCTACTCA) | 1.87
GCATGCACATGGACCGGTTTTCCCGGTAATCCGTATTTGTA (site GAATGCACTTA) | 0.245
GCATGCACATGGACCGGTTTTCCCGGTAATCCGTATTTGTA (site GCATGCACTTA) | 2.41
GCATGCACATGGACCGGTTTTCCCGGTAATCCGTATTTGTA (site GGATGCACTTA) | 0.364
GCATGCACATGGACCGGTTTTCCCGGTAATCCGTATTTGTA (site GTATGCACTTA) | 1.01
GCATGCGCATGGACCGGTTTTCCCGGTAATCCGTATTTGTT (site GCATGCGCTAA) | 1.82
GCATTGTCATGGACCGGTTTTCCCGGTAATCCGTATTTGCA (site GCATTGTCTTG) | 2.76
GCCAAAACATGGACCGGTTTTCCCGGTAATCCGTATTTGCT (site GCAAAAACTAG) | 1.08
GCCAAAACATGGACCGGTTTTCCCGGTAATCCGTATTTGCT (site GCCAAAACTAG) | 1
GCCAAAACATGGACCGGTTTTCCCGGTAATCCGTATTTGCT (site GCGAAAACTAG) | 0
GCCAAAACATGGACCGGTTTTCCCGGTAATCCGTATTTGCT (site GCTAAAACTAG) | 0
GCCAAACCATGGACCGGTTTTCCCGGTAATCCGTATTTGGT (site GACAAACCTAC) | 0
GCCAAACCATGGACCGGTTTTCCCGGTAATCCGTATTTGGT (site GCCAAACCTAC) | 0
GCCAAACCATGGACCGGTTTTCCCGGTAATCCGTATTTGGT (site GGCAAACCTAC) | 0.0048

Sequence | recombinant UMI read abundance (log10)
GCCAAACCATGGACCGGTTTTCCCGGTAATCCGTATTTGGT (site GTCAAACCTAC) | 0
GCCAACACATGGACCGGTTTTCCCGGTAATCCGTATTTGAT (site GCCAACACTAT) | 1.9
GCCAAGCCATGGACCGGTTTTCCCGGTAATCCGTATTTGGG (site GCAAAGCCTCC) | 0.00342
GCCAAGCCATGGACCGGTTTTCCCGGTAATCCGTATTTGGG (site GCCAAGCCTCC) | 0.0135
GCCAAGCCATGGACCGGTTTTCCCGGTAATCCGTATTTGGG (site GCGAAGCCTCC) | 0
GCCAAGCCATGGACCGGTTTTCCCGGTAATCCGTATTTGGG (site GCTAAGCCTCC) | 0
GCCAATCCATGGACCGGTTTTCCCGGTAATCCGTATTTGAA (site GACAATCCTTT) | 0.01
GCCAATCCATGGACCGGTTTTCCCGGTAATCCGTATTTGAA (site GCCAATCCTTT) | 0.53
GCCAATCCATGGACCGGTTTTCCCGGTAATCCGTATTTGAA (site GGCAATCCTTT) | 0
GCCAATCCATGGACCGGTTTTCCCGGTAATCCGTATTTGAA (site GTCAATCCTTT) | 0.00267
GCCACAGCATGGACCGGTTTTCCCGGTAATCCGTATTTGTT (site GCCACAGCTAA) | 1.48
GCCACCCCATGGACCGGTTTTCCCGGTAATCCGTATTTGTA (site GCCACACCTTA) | 0.0331
GCCACCCCATGGACCGGTTTTCCCGGTAATCCGTATTTGTA (site GCCACCCCTTA) | 0
GCCACCCCATGGACCGGTTTTCCCGGTAATCCGTATTTGTA (site GCCACGCCTTA) | 0
GCCACCCCATGGACCGGTTTTCCCGGTAATCCGTATTTGTA (site GCCACTCCTTA) | 0.0101
GCCACCGCATGGACCGGTTTTCCCGGTAATCCGTATTTGCG (site ACCACCGCTCG) | 0.439
GCCACCGCATGGACCGGTTTTCCCGGTAATCCGTATTTGCG (site CCCACCGCTCG) | 0.0179
GCCACCGCATGGACCGGTTTTCCCGGTAATCCGTATTTGCG (site GCCACCGCTCG) | 0.939
GCCACCGCATGGACCGGTTTTCCCGGTAATCCGTATTTGCG (site TCCACCGCTCG) | 0.00586
GCCACGCCATGGACCGGTTTTCCCGGTAATCCGTATTTGTT (site GCCACGCCTAA) | 0.0554
GCCACGCCATGGACCGGTTTTCCCGGTAATCCGTATTTGTT (site GCCACGCCTCA) | 0.0173
GCCACGCCATGGACCGGTTTTCCCGGTAATCCGTATTTGTT (site GCCACGCCTGA) | 0
